Assay results reported in patent US11530223B2, “Spiro-lactam NMDA receptor modulators and uses thereof” (Aptinyx Inc., priority 2016, dated 2022).
Like-named read-outs stand apart in the source and are kept apart here.

Assays:
rats = test: positive emotional learning (PEL) test, 50-kHz ultrasonic vocalizations; type: in vivo; settings: rat, PO, one hour after administration
Procedure: Experiments were conducted as described in Burgdorf et al., “The effect of selective breeding for differential rates of 50-kHz ultrasonic vocalizations on emotional behavior in rats,” Devel. Psychobiol., 51:34-46 (2009). Rat 50-kHz ultrasonic vocalization (hedonic USVs) is a validated model for the study of positive affective state and is best elicited by rough-and-tumble play.
The PEL assay measures the acquisition of positive (hedonic) 50-kHz ultrasonic vocalizations (USVs) to a social stimulus, heterospecific rough and tumble play stimulation. Heterospecific rough-and-tumble play stimulation was administered by the experimenter's right hand. One hour after administration of test compound or vehicle negative control (0.5% sodium carboxymethyl cellulose in 0.9% sterile saline vehicle), animals received 3 min of heterospecific rough-and-tumble play that consisted of alternating 15 sec blocks of heterospecific play and 15 sec of no-stimulation. High frequency ultrasonic vocalizations (USVs) were recorded and analyzed by sonogram with Avasoft SASlab Pro (Germany) as previously described by Burgdorf et al., “Positive emotional learning is regulated in the medial prefrontal cortex by GluN2B-containing NMDA receptors,” Neuroscience, 192:515-523 (2011). Frequency modulated 50-kHz USVs that occurred during each of the no-stimulation periods were quantified to measure PEL. Animals were not habituated to play stimulation before testing. Positive emotional learning was measured during the conditioned stimulus (CS) trials preceding the tickle unconditioned stimulus (UCS) trials. Animals received 15 second trials consisting of 6 CS and 6 UCS trials each (3 min total).
The table below summarizes the findings. As each experiment includes its own vehicle group, an example (typical) vehicle score is shown. Max effect (mean number of 50 kHz USVs per 15 seconds) is reported as ^: <6.0; *: 6.0-7.6; **: 7.7-10; ***:10.1-20

IV pharmacokinetics = type: in vivo; settings: Sprague Dawley rats; for C0: normal saline (first four compounds: 5% NMP, 5% Solutol HS, 90% normal saline); for Vd: read-out: Vss
Procedure: Sprague Dawley rats were dosed intravenously using a normal saline formulation containing 2 mg/kg of the compounds identified in the below table (except for the first four compounds that were delivered in 5% NMP, 5% Solutol® HS and 90% normal saline formulation). The table below summarizes the results of the IV pharmacokinetics.

NMDAR2D [1] = molecular target: T1, NMDAR2D (Homo sapiens, UniProt O15399); test: [3H]MK-801 binding in NMDAR2D expressing HEK cell membranes; type: biochemical; design: key to B: log EC50: 0=−; ≥1×10^−9 M (e.g., −8)=+; <1×10^−9 M (e.g., −10)=++; settings: for A: % maximal [3H]MK-801 binding relative to 1 mM glycine: second part of table (r25-r35), c3, taken as NMDAR2D
T1 construct: expressed in transfected cells; host or cells: HEK cells (membrane extract)
Procedure: (§1) Assays were conducted as described by Moskal et al., “GLYX-13: a monoclonal antibody-derived peptide that acts as an N-methyl-D-aspartate receptor modulator,” Neuropharmacology, 49, 1077-87, 2005. These studies were designed to determine if the test compounds act to facilitate NMDAR activation in NMDAR2A, NMDAR2B, NMDAR2C or NMDAR2D expressing HEK cell membranes as measured by increases in [^3H]MK-801 binding.
(§2) In the assay, 300 μg of NMDAR expressing HEK cell membrane extract protein was preincubated for 15 minutes at 25° C. in the presence of saturating concentrations of glutamate (50 μM) and varying concentrations of test compound (1×10^−15M−1×10^−7M), or 1 mM glycine. Following the addition of 0.3 μCi of [^3H]MK-801 (22.5 Ci/mmol), reactions were again incubated for 15 minutes at 25° C. (nonequilibrium conditions). Bound and free [^3H]MK-801 were separated via rapid filtration using a Brandel apparatus.
(§3) In analyzing the data, the DPM (disintegrations per minute) of [^3H]MK-801 remaining on the filter were measured for each concentration of test compound or for 1 mM glycine. The DPM values for each concentration of a ligand (N=2) were averaged. The baseline value was determined from the best fit curve of the DPM values modeled using the GraphPad program and the log(agonist) vs. response (three parameters) algorithm was then subtracted from all points in the dataset. The % maximal [^3H]MK-801 binding was then calculated relative to that of 1 mM glycine: all baseline subtracted DPM values were divided by the average value for 1 mM glycine. The EC50 and % maximal activity were then obtained from the best fit curve of the % maximal [^3H]MK-801 binding data modelled using the GraphPad program and the log(agonist) vs. response (three parameters) algorithm.
(§4) The tables below summarize the results for the wild type […] NMDAR2A, NMDAR2B, NMDAR2C, and NMDAR2D, and whether the compound is not an agonist (−), is an agonist (+), or is a strong agonist (++), where column A is based on the % maximal [^3H]MK-801 binding relative to 1 mM glycine (−=0; <100%=+; and >100%=++); and column B is based on log EC50 values (0=−; ≥1×10^−9 M (e.g., −8)=+; and <1×10^−9 M (e.g., −10)=++).

[2] = oral pharmacokinetics (plasma, brain, CSF); type: in vivo; settings: Sprague Dawley rats, per os 10 mg/kg; for Tmax: normal saline (first four compounds: 5% NMP, 5% Solutol HS, 90% normal saline)
Procedure: Plasma, brain, and CSF samples were analyzed at various time points over a 24 hour period.

NMDAR2B = molecular target: T2, NMDAR2B (Homo sapiens, UniProt Q13224); test: [3H]MK-801 binding in NMDAR2B expressing HEK cell membranes; type: biochemical; settings: 50 μM glutamate; for EC50: read-out: B: log EC50 (converted); for Emax: read-out: A: % maximal [3H]MK-801 binding relative to 1 mM glycine
T2 construct: expressed in transfected cells; host or cells: HEK cells (membrane extract)
Procedure: as §1, §2, §3, §4

NMDAR2C = molecular target: T3, NMDAR2C (Homo sapiens, UniProt Q14957); test: [3H]MK-801 binding in NMDAR2C expressing HEK cell membranes; type: biochemical; settings: second part of table (r25-r35); c2, taken as NMDAR2C; read-out: B: log EC50 (converted)
T3 construct: expressed in transfected cells; host or cells: HEK cells (membrane extract)
Procedure: as §1, §2
as §3, with “algorithm. […]” for “algorithm.”

NMDAR2A = molecular target: T4, NMDAR2A (Homo sapiens, UniProt Q12879); test: [3H]MK-801 binding in NMDAR2A expressing HEK cell membranes; type: biochemical; design: key to B: log EC50: 0=−; ≥1×10^−9 M (e.g., −8)=+; <1×10^−9 M (e.g., −10)=++; settings: 50 μM glutamate; for EC50: read-out: B: log EC50 (converted)
T4 construct: expressed in transfected cells; host or cells: HEK cells (membrane extract)
Procedure: as §1, §2, §3, §4

NMDAR2D [3] = molecular target: T5, NMDAR2D (Homo sapiens, UniProt O15399+Q05586); test: [3H]MK-801 binding in NMDAR2D expressing HEK cell membranes; type: biochemical; design: key to B: log EC50: 0=−; ≥1×10^−9 M (e.g., −8)=+; <1×10^−9 M (e.g., −10)=++; settings: for EC50: second part of table (r25-r35), c4, taken as NMDAR2D, read-out: B: log EC50 (converted); for Emax: second part of table, c3, taken as NMDAR2D, read-out: A: % maximal [3H]MK-801 binding relative to 1 mM glycine
T5 construct: expressed in transfected cells; host or cells: HEK cells (membrane extract)
Procedure: as §1, §2, §3, §4

Sprague Dawley rats = test: Porsolt forced swim test; type: in vivo; settings: 0.1 mg/kg; for % reduction in float time: relative to vehicle group
Procedure: A non-clinical in vivo pharmacology study (Porsolt assay) was performed to measure antidepressant-like effects. A negative control (0.5% sodium carboxymethyl cellulose in 0.9% sterile saline vehicle) and a positive control (fluoxetine) are shown for comparison against test compound. The study allowed for the evaluation of the effects of each compound on the Porsolt forced swim test as assessed by the rats' response (reduced floating time) during a 5-minute swimming test.
Male 2-3 month old Sprague Dawley rats were used (Harlan, Indianapolis, Ind.). Rats were housed in Lucite cages with aspen wood chip bedding, maintained on a 12:12 light:dark cycle (lights on at 5 AM), and given ad libitum access to Purina lab chow (USA) and tap water throughout the study.
The Porsolt forced swim test adapted for use in rats was performed as described by Burgdorf et al., (The long-lasting antidepressant effects of rapastinel (GLYX-13) are associated with a metaplasticity process in the medial prefrontal cortex and hippocampus. Neuroscience 308:202-211, 2015). Animals were placed in a 46 cm tall×20 cm in diameter clear glass tube filled to 30 cm with tap water (23±1° C.) for 15 min on the first day (habituation) and 5 min on the subsequent test day. Positive control fluoxetine was dosed 3 times (24 h, 5 h and 1 h) prior to testing. Animals were tested 1 h or 24 h post-dosing with the test compounds or vehicle. Animals received a 15 min habituation session 1 day before the 5 min test. A subset of compounds tested at 1 h post-dosing were retested at 1 wk post-dosing in the same sets of animals. Water was changed after every other animal. Animals were videotaped, and floating time as defined as the minimal amount of effort required to keep the animals head above water was scored offline by a blinded experimenter with high inter-rater reliability (Pearson's r>0.9).
Each compound tested at dose level shown. Significance vs. vehicle group for each experiment is marked. […] A compound marked “No” was not statistically significant from vehicle. Data was averaged for test compound and vehicle groups (N approximately 8 per group) and the percent reduction in floating for group treated with test compound relative to group treated with vehicle is shown.

[4] = Sprague Dawley, rat, in vivo, iv, 2 mg/kg
[5] = Sprague Dawley, rat, plasma, po, 10 mg/kg
[6] = Sprague Dawley, rat, plasma, po, 10 mg/kg, plasma, read-out: Cmax
[7] = rat, plasma, po, read-out: Tmax
[8] = Sprague Dawley, rat, in vivo, iv, 2 mg/kg, read-out: C0

T2 sequence (Q13224 27-1484, species assumed, other chains not shown): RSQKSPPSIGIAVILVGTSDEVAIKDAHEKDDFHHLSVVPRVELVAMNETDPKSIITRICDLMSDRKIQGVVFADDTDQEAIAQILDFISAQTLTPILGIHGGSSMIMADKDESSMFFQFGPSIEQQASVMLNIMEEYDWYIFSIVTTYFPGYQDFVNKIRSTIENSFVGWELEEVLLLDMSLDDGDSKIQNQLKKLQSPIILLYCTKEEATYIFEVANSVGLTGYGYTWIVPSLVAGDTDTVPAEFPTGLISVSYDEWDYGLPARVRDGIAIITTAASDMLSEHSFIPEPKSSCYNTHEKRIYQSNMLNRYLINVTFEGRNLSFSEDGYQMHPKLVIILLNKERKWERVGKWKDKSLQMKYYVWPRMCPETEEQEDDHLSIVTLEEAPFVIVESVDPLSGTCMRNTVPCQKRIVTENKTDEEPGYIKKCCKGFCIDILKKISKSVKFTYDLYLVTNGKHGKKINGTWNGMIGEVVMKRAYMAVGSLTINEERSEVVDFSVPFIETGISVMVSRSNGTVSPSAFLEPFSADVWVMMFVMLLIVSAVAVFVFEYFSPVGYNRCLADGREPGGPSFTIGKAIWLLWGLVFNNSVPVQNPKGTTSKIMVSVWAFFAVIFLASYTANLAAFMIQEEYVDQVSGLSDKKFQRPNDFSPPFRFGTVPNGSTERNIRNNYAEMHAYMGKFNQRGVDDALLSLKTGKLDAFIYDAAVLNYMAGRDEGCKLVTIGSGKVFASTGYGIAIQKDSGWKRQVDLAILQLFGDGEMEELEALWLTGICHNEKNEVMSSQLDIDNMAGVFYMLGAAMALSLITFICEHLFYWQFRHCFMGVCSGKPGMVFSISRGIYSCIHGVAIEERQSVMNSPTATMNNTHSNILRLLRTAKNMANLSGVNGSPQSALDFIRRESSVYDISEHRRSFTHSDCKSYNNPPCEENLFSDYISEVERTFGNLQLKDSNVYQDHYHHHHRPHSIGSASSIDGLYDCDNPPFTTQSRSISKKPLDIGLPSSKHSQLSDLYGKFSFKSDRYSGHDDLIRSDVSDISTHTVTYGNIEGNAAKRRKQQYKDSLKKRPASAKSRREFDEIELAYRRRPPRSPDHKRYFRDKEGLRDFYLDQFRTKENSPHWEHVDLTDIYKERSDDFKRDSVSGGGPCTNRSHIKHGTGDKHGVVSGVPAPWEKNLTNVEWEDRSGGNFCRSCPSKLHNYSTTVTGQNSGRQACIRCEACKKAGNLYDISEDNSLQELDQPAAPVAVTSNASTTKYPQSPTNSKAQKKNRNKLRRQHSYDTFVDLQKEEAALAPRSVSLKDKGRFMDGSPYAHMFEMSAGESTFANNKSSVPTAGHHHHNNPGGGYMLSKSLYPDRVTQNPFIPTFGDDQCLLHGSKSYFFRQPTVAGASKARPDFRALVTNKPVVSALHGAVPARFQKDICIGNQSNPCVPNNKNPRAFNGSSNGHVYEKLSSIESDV
T3 sequence (Q14957 20-1233, species assumed, other chains not shown): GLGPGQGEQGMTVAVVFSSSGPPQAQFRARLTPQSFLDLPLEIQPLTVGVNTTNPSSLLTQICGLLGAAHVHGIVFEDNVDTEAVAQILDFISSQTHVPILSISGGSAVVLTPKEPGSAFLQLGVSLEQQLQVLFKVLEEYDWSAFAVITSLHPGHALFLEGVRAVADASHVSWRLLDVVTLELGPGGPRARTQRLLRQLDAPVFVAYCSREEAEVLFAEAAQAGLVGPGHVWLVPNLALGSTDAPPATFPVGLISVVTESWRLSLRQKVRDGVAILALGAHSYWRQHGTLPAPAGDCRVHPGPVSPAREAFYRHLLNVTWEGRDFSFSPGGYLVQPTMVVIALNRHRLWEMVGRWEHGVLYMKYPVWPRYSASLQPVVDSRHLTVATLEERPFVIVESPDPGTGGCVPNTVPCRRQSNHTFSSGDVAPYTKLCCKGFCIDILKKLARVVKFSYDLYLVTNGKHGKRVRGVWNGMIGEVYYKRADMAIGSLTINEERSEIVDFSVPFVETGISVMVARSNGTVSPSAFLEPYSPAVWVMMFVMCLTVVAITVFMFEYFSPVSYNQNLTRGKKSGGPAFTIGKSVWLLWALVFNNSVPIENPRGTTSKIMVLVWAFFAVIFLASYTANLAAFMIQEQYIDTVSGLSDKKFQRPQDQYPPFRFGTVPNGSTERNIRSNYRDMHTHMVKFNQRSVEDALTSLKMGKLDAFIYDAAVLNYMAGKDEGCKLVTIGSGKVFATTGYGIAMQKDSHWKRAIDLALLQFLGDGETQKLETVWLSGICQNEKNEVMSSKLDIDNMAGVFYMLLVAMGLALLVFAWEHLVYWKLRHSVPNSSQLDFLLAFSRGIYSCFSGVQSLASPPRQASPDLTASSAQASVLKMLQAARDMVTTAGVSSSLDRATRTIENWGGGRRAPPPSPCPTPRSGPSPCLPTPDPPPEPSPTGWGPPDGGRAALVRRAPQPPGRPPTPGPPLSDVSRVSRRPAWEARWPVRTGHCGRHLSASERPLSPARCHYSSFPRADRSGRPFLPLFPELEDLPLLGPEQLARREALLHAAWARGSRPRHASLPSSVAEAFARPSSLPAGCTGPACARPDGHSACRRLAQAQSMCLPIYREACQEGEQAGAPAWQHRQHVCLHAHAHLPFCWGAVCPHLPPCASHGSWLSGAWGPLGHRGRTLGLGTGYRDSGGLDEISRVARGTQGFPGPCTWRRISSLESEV
T5 sequence (O15399 28-1336, species assumed, other chains not shown): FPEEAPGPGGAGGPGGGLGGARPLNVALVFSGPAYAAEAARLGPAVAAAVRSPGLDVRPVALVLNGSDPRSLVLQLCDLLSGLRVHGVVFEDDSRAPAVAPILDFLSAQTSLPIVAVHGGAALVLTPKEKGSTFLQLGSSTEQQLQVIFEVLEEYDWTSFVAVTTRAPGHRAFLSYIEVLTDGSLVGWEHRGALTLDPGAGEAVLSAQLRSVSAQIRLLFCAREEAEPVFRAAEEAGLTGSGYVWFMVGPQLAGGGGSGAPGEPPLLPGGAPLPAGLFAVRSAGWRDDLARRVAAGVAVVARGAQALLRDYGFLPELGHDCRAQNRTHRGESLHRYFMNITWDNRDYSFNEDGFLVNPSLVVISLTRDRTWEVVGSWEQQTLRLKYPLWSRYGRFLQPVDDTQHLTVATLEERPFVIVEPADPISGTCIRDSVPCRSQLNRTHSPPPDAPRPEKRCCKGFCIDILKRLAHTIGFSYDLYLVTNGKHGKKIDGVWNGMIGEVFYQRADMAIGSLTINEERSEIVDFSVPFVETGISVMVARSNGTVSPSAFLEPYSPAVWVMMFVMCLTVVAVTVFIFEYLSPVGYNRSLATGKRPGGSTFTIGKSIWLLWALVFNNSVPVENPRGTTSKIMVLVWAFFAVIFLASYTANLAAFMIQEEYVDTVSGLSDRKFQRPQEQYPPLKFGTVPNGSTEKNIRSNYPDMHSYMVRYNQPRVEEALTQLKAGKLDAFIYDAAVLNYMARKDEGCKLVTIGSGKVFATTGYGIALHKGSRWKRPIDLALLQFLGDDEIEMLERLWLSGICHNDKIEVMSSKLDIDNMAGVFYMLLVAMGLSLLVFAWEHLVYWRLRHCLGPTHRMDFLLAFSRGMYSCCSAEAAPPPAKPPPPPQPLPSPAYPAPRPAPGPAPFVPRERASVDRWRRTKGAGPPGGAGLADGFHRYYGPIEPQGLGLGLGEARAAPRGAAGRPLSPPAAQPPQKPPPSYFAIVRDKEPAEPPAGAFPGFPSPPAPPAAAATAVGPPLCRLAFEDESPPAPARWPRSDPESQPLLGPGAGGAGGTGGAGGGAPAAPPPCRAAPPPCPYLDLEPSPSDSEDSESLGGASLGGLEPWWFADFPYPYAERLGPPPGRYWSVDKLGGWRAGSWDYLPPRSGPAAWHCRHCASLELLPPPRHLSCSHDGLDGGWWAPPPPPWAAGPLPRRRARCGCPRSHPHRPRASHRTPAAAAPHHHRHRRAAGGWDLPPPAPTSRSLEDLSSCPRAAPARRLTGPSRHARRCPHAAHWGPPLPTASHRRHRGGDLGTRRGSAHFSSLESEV
T1 sequence (O15399 28-1336, species assumed, other chains not shown): as above

Compound	Vss (IV pharmacokinetics; intravenous 2 mg/kg) [L/kg]	C0 (IV pharmacokinetics; intravenous 2 mg/kg) [ng/mL]	A: % maximal [3H]MK-801 binding relative to 1 mM glycine (NMDAR2D [1])	CSF Cmax [2] [ng/mL]	Brain Cmax [2] [ng/mL]	A: % maximal [3H]MK-801 binding relative to 1 mM glycine (NMDAR2B)	EC50 (NMDAR2B) [nM]	EC50 (NMDAR2C) [nM]	A: % maximal [3H]MK-801 binding relative to 1 mM glycine (NMDAR2A)	EC50 (NMDAR2A) [nM]	Max Effect (mean number of 50 kHz USVs per 15 seconds) (rats; dose .001-1 mg/kg)	AUC(0-t) (IV pharmacokinetics; [4]) [ng·h/mL]	half-life (IV pharmacokinetics; [4]) [min]	EC50 (NMDAR2D [3]) [nM]	AUC(0-t) [2, 5] [ng·h/mL]	bioavailability [2, 5] [%]	Cmax [2, 6] [ng/mL]	Tmax [2, 7] [min]	Emax (NMDAR2B) [%]	clearance (IV pharmacokinetics; [4]) [mL/min/kg]	further results
CC(C)(C)OC(=O)N1CCCC2(CCNC2=O)C1 (single isomer, unassigned) [RA-1, tert-butyl 1-oxo-2,7-diazaspiro[4.5]decane-7-carboxylate]	1.69	1247.08	− (−=0)	102.5	203.6	+ (<100%=+)	< 1	< 1	+ (<100%=+)	≥ 1											Max Effect (mean number of 50 kHz USVs per 15 seconds) (rats; dose 0.1 mg/kg): *** (***:10.1-20); AUClast (IV pharmacokinetics; intravenous 2 mg/kg): 234.08 ng·h/mL; T1/2 (IV pharmacokinetics; intravenous 2 mg/kg): 11.4 min; B: log EC50 (NMDAR2D [1]; second part of table, c4, taken as NMDAR2D): −; % F [2]: 28%; AUClast [2]: 324.2 ng·h/mL; Tmax [2]: 15 min; Cmax ([2]; plasma): 592 ng/mL
CC(C)(C)OC(=O)N1CCCC2(CCNC2=O)C1 (single isomer, unassigned) [RE-1, tert-butyl 1-oxo-2,7-diazaspiro[4.5]decane-7-carboxylate]	4.12	589.9	+ (<100%=+)	86.1	22		< 1		− (−=0)		*** (***:10.1-20)	136	16.2	< 1	273	40	495	15	< 100		B: log EC50 (NMDAR2A): −
CC(C)(C)OC(=O)N1CCCC12CCNC2=O (single isomer, unassigned) [RM-1, tert-butyl 6-oxo-1,7-diazaspiro[4.4]nonane-1-carboxylate]				1415	2763	++ (>100%=++)	< 1	< 1	+ (<100%=+)	< 1	*** (***:10.1-20)	1330	29.4	< 1	5010	75	4310	15		24.9	C0 (IV pharmacokinetics; [8]): 2010 ng/mL; Vd (IV pharmacokinetics; [4]): 0.91 L/kg; Emax (NMDAR2D [3]): < 100%
CC(C)C(=O)N1CCCC12CCNC2=O (stereo not shown) [RZ-405]				3157	2209		≥ 1	< 1	+ (<100%=+)	< 1		7010	243	< 1	29500	84	10800	30	> 100	4.74	C0 (IV pharmacokinetics; [8]): 3040 ng/mL; Vd (IV pharmacokinetics; [4]): 0.69 L/kg; Emax (NMDAR2D [3]): < 100%; Significance vs. vehicle (Sprague Dawley rats; 1 h post-dose, floating time in 5 min test): Yes (statistically significant (p<=0.05) from vehicle at dose level shown); % reduction in float time (Sprague Dawley rats; 1 h post-dose): 78.9%; Significance vs. vehicle (Sprague Dawley rats; 24 h post-dose): Yes (statistically significant (p<=0.05) from vehicle at dose level shown); % reduction in float time (Sprague Dawley rats; 24 h post-dose): 42.7%
